Source: ChEMBL document CHEMBL4665622, “Repurposing ibuprofen to control Staphylococcus aureus biofilms” (2019)
Active and inactive are the calls of the source. The calls are words filed in the database; no cut-off is given here.

Key:
Staphylococcus aureus [1] = assay: Antibiofilm activity against Staphylococcus aureus RN4220 preform-matured biofilm assessed as reduction in CFU per cm2 at 10 times of MIC incubated upto 24 hrs; type: functional; conditions: time hrs <=24
Staphylococcus aureus [2] = assay: Antibiofilm activity against Staphylococcus aureus RN4220 preform-matured biofilm assessed as reduction in CFU per cm2 at 5 times of MIC incubated upto 24 hrs; type: functional; conditions: time hrs <=24
Staphylococcus aureus [3] = assay: Antibiofilm activity against Staphylococcus aureus SA1199B preform-matured biofilm assessed as reduction in CFU at 5 and 10 times of MIC incubated upto 24 hrs relative to control; type: functional; set-up: scale not given: the % may be the effect or the level left; conditions: time hrs <=24
Staphylococcus aureus [4] = assay: Antibiofilm activity against Staphylococcus aureus XU212 preform-matured biofilm assessed as reduction in CFU upto 10 times of MIC incubated upto 24 hrs relative to control; type: functional; set-up: scale not given: the % may be the effect or the level left; conditions: time hrs <=24
Staphylococcus aureus [5] = assay: Antibiofilm activity against Staphylococcus aureus SA1199B preform-matured biofilm assessed as increase in biofilm inactivation upto 10 times of MIC incubated upto 24 hrs relative to control; type: functional; conditions: time hrs <=24
Staphylococcus aureus [6] = assay: Antibiofilm activity against Staphylococcus aureus XU212 preform-matured biofilm assessed as increase in biofilm removal at MIC incubated upto 24 hrs relative to control; type: functional; conditions: time hrs <=24
Staphylococcus aureus [7] = assay: Antibiofilm activity against Staphylococcus aureus XU212 preform-matured biofilm assessed as increase in biofilm inactivation upto 10 times of MIC incubated upto 24 hrs relative to control; type: functional; conditions: time hrs <=24
Staphylococcus aureus [8] = assay: Antibiofilm activity against Staphylococcus aureus XU212 preform-matured biofilm assessed as increase in biofilm removal at 5 and 10 times of MIC incubated upto 24 hrs relative to control; type: functional; conditions: time hrs <=24
Staphylococcus aureus [9] = assay: Antibiofilm activity against Staphylococcus aureus SA1199B preform-matured biofilm assessed as increase in biofilm removal at 5 and 10 times of MIC incubated upto 24 hrs relative to control; type: functional; conditions: time hrs <=24
Staphylococcus aureus [10] = assay: Antibiofilm activity against Staphylococcus aureus SA1199B preform-matured biofilm assessed as increase in biofilm removal at MIC incubated upto 24 hrs relative to control; type: functional; conditions: time hrs <=24
Staphylococcus aureus [11] = assay: Antibiofilm activity against Staphylococcus aureus RN4220 preform-matured biofilm assessed as increase in biofilm removal at 5 and 10 times of MIC incubated upto 24 hrs relative to control; type: functional; conditions: time hrs <=24
Staphylococcus aureus [12] = assay: Antibiofilm activity against Staphylococcus aureus RN4220 preform-matured biofilm assessed as increase in biofilm removal at MIC incubated upto 24 hrs relative to control; type: functional; conditions: time hrs <=24
Staphylococcus aureus [13] = assay: Antibiofilm activity against Staphylococcus aureus CECT 976 preform-matured biofilm assessed as reduction in CFU per cm2 at MIC incubated for 6 hrs; type: functional
Staphylococcus aureus [14] = assay: Antibiofilm activity against Staphylococcus aureus CECT 976 preform-matured biofilm assessed as reduction in CFU at MIC incubated for 24 hrs; type: functional, organism-based
Staphylococcus aureus [15] = assay: Antibiofilm activity against Staphylococcus aureus RN4220 preform-matured biofilm assessed as increase in biofilm inactivation upto 10 times of MIC incubated upto 24 hrs relative to control; type: functional; conditions: time hrs <=24
Staphylococcus aureus [16] = assay: Antibiofilm activity against Staphylococcus aureus CECT 976 preform-matured biofilm assessed as increase in biofilm inactivation at upto 10 times of MIC incubated upto 24 hrs relative to control; type: functional; conditions: time hrs <=24
Staphylococcus aureus [17] = assay: Antibiofilm activity against Staphylococcus aureus CECT 976 preform-matured biofilm assessed as increase in biofilm removal at upto 10 times of MIC incubated for 24 hrs; type: functional, organism-based; conditions: time 1.0 hrs
Staphylococcus aureus [18] = assay: Antibiofilm activity against Staphylococcus aureus CECT 976 preform-matured biofilm assessed as increase in biofilm removal at upto 10 times of MIC incubated for 1 hr; type: functional, organism-based
Staphylococcus aureus [19] = assay: Antibiofilm activity against Staphylococcus aureus CECT 976 preform-matured biofilm assessed as increase in biofilm removal at 10 times of MIC incubated for 6 hrs relative to control; type: functional
Staphylococcus aureus [20] = assay: Antibiofilm activity against Staphylococcus aureus CECT 976 preform-matured biofilm assessed as increase in biofilm removal at 5 times of MIC incubated for 6 hrs relative to control; type: functional
Staphylococcus aureus [21] = assay: Antibiofilm activity against Staphylococcus aureus CECT 976 preform-matured biofilm assessed as increase in biofilm removal at MIC incubated for 6 hrs relative to control; type: functional
Staphylococcus aureus [22] = assay: Inhibition of cell adhesion in Staphylococcus aureus CECT 976 assessed as decrease in CFU at 10 times of MIC incubated upto 24 hrs relative to control; type: functional; conditions: time hrs <=24
Staphylococcus aureus [23] = assay: Inhibition of cell adhesion in Staphylococcus aureus CECT 976 assessed as decrease in biomass content incubated upto 24 hrs; type: functional, organism-based; conditions: time hrs <=24
Staphylococcus aureus [24] = assay: Inhibition of cell adhesion in Staphylococcus aureus CECT 976 assessed as decrease in biomass content at upto 10 times of MIC incubated upto 24 hrs relative to control; type: functional; conditions: time hrs <=24
Cell membrane [25] = assay: Effect on surface tension of Staphylococcus aureus CECT 976 assessed as hydrophobicity at MIC incubated for 1 hr (reference value: 34.8 +/- 1.3 mJ/m2); type: subcellular
Cell membrane [26] = assay: Effect on surface tension of Staphylococcus aureus CECT 976 assessed as hydrophobicity at 0.5 times of MIC incubated for 1 hr (reference value: 34.8 +/- 1.3 mJ/m2); type: subcellular
Cell membrane [27] = assay: Effect on surface tension of Staphylococcus aureus CECT 976 assessed as hydrophobicity at 0.25 times of MIC incubated for 1 hr (reference value: 34.8 +/- 1.3 mJ/m2); type: subcellular
Cell membrane [28] = assay: Effect on surface tension of Staphylococcus aureus CECT 976 assessed as electron donor component at MIC incubated for 1 hr (reference value: 55 +/- 0.9 mJ/m2); type: subcellular
Cell membrane [29] = assay: Effect on surface tension of Staphylococcus aureus CECT 976 assessed as electron donor component at 0.5 times of MIC incubated for 1 hr (reference value: 55 +/- 0.9 mJ/m2); type: subcellular
Cell membrane [30] = assay: Effect on surface tension of Staphylococcus aureus CECT 976 assessed as electron donor component at 0.25 times of MIC incubated for 1 hr (reference value: 55 +/- 0.9 mJ/m2); type: subcellular
Cell membrane [31] = assay: Effect on surface tension of Staphylococcus aureus CECT 976 assessed as electron acceptor component at MIC incubated for 1 hr (reference value: 0.5 +/- 0.1 mJ/m2); type: subcellular

With CC(C)Cc1ccc(C(C)C(=O)O)cc1 (stereo unspecified) [IBUPROFEN] the Activity (Staphylococcus aureus [1]) was 2.5 log10CFU, the Activity (Staphylococcus aureus [2]) was 1.8 log10CFU and the Activity (Staphylococcus aureus [3]) was 100%. For the same molecule, the Activity (Staphylococcus aureus [4]) was 100%, the Activity (Staphylococcus aureus [5]) was “<=55%” and the Activity (Staphylococcus aureus [6]) was “<=14%”. For the same molecule, the Activity (Staphylococcus aureus [7]) was “<=55%”, the Activity (Staphylococcus aureus [8]) was 0% and the Activity (Staphylococcus aureus [9]) was 0%. The Activity (Staphylococcus aureus [10]) was “<=14%”, the Activity (Staphylococcus aureus [11]) was 0% and the Activity (Staphylococcus aureus [12]) was “<=14%”. For the same molecule, the Activity (Staphylococcus aureus [13]) was 0.8 log10CFU, the inhibition (Staphylococcus aureus [14]) was “Active” and the Activity (Staphylococcus aureus [15]) was “<=55%”. The “inhibition (INH)” value (Staphylococcus aureus [16]) was “<=80%”, the inhibition (Staphylococcus aureus [17]) was “Dose-dependent effect” and the inhibition (Staphylococcus aureus [18]) was “Dose-dependent effect”. The “inhibition (INH)” value (Staphylococcus aureus [19]) was 39%, the “inhibition (INH)” value (Staphylococcus aureus [20]) was 42% and the “inhibition (INH)” value (Staphylococcus aureus [21]) was 42%. The “inhibition (INH)” value (Staphylococcus aureus [22]) was 100%, the inhibition (Staphylococcus aureus [23]) was “Dose-dependent effect” and the “inhibition (INH)” value (Staphylococcus aureus [24]) was “<=38.5%”. For the same molecule, the Activity (Cell membrane [25]) was 30.1 mJ/m2, the Activity (Cell membrane [26]) was 27.9 mJ/m2 and the Activity (Cell membrane [27]) was 27.3 mJ/m2. It also gave an Activity (Cell membrane [28]) of 50 mJ/m2, an Activity (Cell membrane [29]) of 49.7 mJ/m2 and an Activity (Cell membrane [30]) of 48.8 mJ/m2. The Activity (Cell membrane [31]) was 1.7 mJ/m2.
